What is called IC50 is the concentration that gives 50% inhibition.

Activity calls are given as the source filed them. No cut-off for these calls is given here.

The record followed here is ChEMBL document CHEMBL1137697, “In vitro and in vivo antitrypanosomatid activity of 5-nitroindazoles” (Eur J Med Chem, 2009).

One data set concerns Leishmania braziliensis. In words: Antileishmanial activity against Leishmania braziliensis MHOM/BR/75/M2903 promastigote assessed as lysis at 100 ug/mL after 72 hrs. The data set is classed as functional.
Conditions: not given
On to `O=[N+]([O-])c1ccc2c(c1)c(O)nn2Cc1ccccc1CN1CCCCC1`, for which the Activity was below 60%.

Turning to `O=[N+]([O-])c1ccc2c(c1)c(O)nn2CCCCCN1CCCCC1`, the Activity is recorded as below 60%.

For the compound `N=C(N)c1ccc(OCCCCCOc2ccc(C(=N)N)cc2)cc1` [PENTAMIDINE], the Activity is given as 100%.

With `COc1nn(CCOCCN2CCCCC2)c2ccc([N+](=O)[O-])cc12.Cl`, the Activity is reported as below 60%.

In a further data set the test system is Trypanosoma cruzi. In words: Inhibition of respiration in Trypanosoma cruzi Tulahuen 2 assessed as oxygen uptake at 0.515 mM. The data set is classed as functional.
Conditions: not given
Also noted: scale not given: the % may be the effect or the level left.
For the compound `COc1nn(CCOCCN2CCCCC2)c2ccc([N+](=O)[O-])cc12.Cl`, the Activity turned out to be 130%.

System in another data set: not listed separately
Kind of data set: Toxicity in BALB/c mouse assessed as survival fraction at 30 mg/kg, po after 9 weeks. The data set is classed as organism-based. Also noted: dose 30 mg/kg, route oral. To be noted: in vivo.
In the case of `COc1nn(CCOCCN2CCCCC2)c2ccc([N+](=O)[O-])cc12.Cl`, the survival at 1512 h amounted to 87.5%.

The test system of another data set is Leishmania infantum. Kind of data set: Antileishmanial activity against Leishmania infantum MHOM/FR/91/LEM2259 promastigote assessed as lysis at 100 ug/mL after 72 hrs. The class given is functional.
Conditions: not given
Take `O=[N+]([O-])c1ccc2c(c1)c(O)nn2Cc1ccccc1CN1CCCCC1`: the Activity was below 60%.

For the compound `O=[N+]([O-])c1ccc2c(c1)c(O)nn2CCCCCN1CCCCC1`, the Activity is reported as below 60%.

Regarding `N=C(N)c1ccc(OCCCCCOc2ccc(C(=N)N)cc2)cc1` [PENTAMIDINE], the Activity was 100%.

On to `COc1nn(CCOCCN2CCCCC2)c2ccc([N+](=O)[O-])cc12.Cl`, for which the Activity is on record as below 60%.

Another data set concerns Trypanosoma cruzi. In words: Antitrypanosomal activity against Trypanosoma cruzi bloodstream trypomastigote in mouse blood assessed as lysis of trypomastigotes at 250 ug/mL after 24 hrs relative to control.
Conditions: not given
The data set is classed as functional.
With `O=[N+]([O-])c1ccc2c(c1)c(O)nn2Cc1ccccc1CN1CCCCC1`, the Activity was determined as 75%.

As to `O=[N+]([O-])c1ccc2c(c1)c(O)nn2CCCCCN1CCCCC1`, the Activity turned out to be 36%.

With `COc1nn(CCOCCN2CCCCC2)c2ccc([N+](=O)[O-])cc12.Cl`, the Activity stood at 85%.

A further data set deals with J774. Kind of data set: Cytotoxicity in mouse J774 cells at 100 ug/mL after 48 hrs. The data set is classed as cell-based. To be noted: j774, 48 h.
With `O=[N+]([O-])c1ccc2c(c1)c(O)nn2Cc1ccccc1CN1CCCCC1`, the Activity entry is “Non-toxic”.

As to `O=[N+]([O-])c1ccc2c(c1)c(O)nn2CCCCCN1CCCCC1`, the Activity result is recorded as “Non-toxic”.

In the case of `COc1nn(CCOCCN2CCCCC2)c2ccc([N+](=O)[O-])cc12.Cl`, the Activity entry is listed as “Non-toxic”.

Another data set concerns Trypanosoma cruzi. In words: Inhibition of respiration in Trypanosoma cruzi Tulahuen 2 assessed as oxygen uptake at 1.032 mM. Set-up: scale not given: the % may be the effect or the level left. The class given is functional.
Conditions: not given
Turning to `O=[N+]([O-])c1ccc2c(c1)c(O)nn2Cc1ccccc1CN1CCCCC1`, the Activity is listed as 109%.

Another data set deals with Trypanosoma cruzi. Kind of data set: Inhibition of respiration in Trypanosoma cruzi Tulahuen 2 assessed as oxygen uptake at 1.030 mM. The data set is classed as functional. Set-up: scale not given: the % may be the effect or the level left.
Conditions: not given
For `COc1nn(CCOCCN2CCCCC2)c2ccc([N+](=O)[O-])cc12.Cl`, the Activity was 155%.

A further data set relates to J774. In words: Cytotoxicity in mouse J774 cells at 100 ug/mL after 24 hrs. To be noted: j774, 24 h. The data set is classed as cell-based.
`O=[N+]([O-])c1ccc2c(c1)c(O)nn2Cc1ccccc1CN1CCCCC1`: the Activity result is given as “Non-toxic”.

Turning to `O=[N+]([O-])c1ccc2c(c1)c(O)nn2CCCCCN1CCCCC1`, the Activity entry is given as “Non-toxic”.

For `COc1nn(CCOCCN2CCCCC2)c2ccc([N+](=O)[O-])cc12.Cl`, the Activity result was “Non-toxic”.

The next data set concerns Trypanosoma cruzi. In words: Inhibition of respiration in Trypanosoma cruzi Tulahuen 2 assessed as oxygen uptake at 0.258 mM. The data set is classed as functional. Set-up: scale not given: the % may be the effect or the level left.
Conditions: not given
For the compound `COc1nn(CCOCCN2CCCCC2)c2ccc([N+](=O)[O-])cc12.Cl`, the Activity stood at 118%.

The next data set has as its system Trypanosoma cruzi. In words: Antitrypanosomal activity against Trypanosoma cruzi bloodstream trypomastigote infected in BALB/c mouse assessed as parasitemia at 30 mg/kg, po after 60 days by colorimetric method. The class given is functional, organism-based. Also noted: dose 30 mg/kg.
Conditions: not given
Take `COc1nn(CCOCCN2CCCCC2)c2ccc([N+](=O)[O-])cc12.Cl`: the result was Active.

For the next data set, the system named is Trypanosoma cruzi. Kind of data set: Antitrypanosomal activity against Trypanosoma cruzi bloodstream trypomastigote infected in BALB/c mouse assessed as antibodies at 30 mg/kg, po after 60 days by colorimetric method. The class given is functional, organism-based. Set-up: dose 30 mg/kg.
Conditions: not given
For the compound `COc1nn(CCOCCN2CCCCC2)c2ccc([N+](=O)[O-])cc12.Cl`, the result was Active.

The next data set concerns Leishmania amazonensis. Kind of data set: Antileishmanial activity against Leishmania amazonensis MHOM/BR/PH8 promastigote assessed as lysis at 100 ug/mL after 72 hrs.
Conditions: not given
The class given is functional.
Take `O=[N+]([O-])c1ccc2c(c1)c(O)nn2Cc1ccccc1CN1CCCCC1`: the Activity is recorded as below 60%.

For the compound `O=[N+]([O-])c1ccc2c(c1)c(O)nn2CCCCCN1CCCCC1`, the Activity is listed as below 60%.

For the compound `N=C(N)c1ccc(OCCCCCOc2ccc(C(=N)N)cc2)cc1` [PENTAMIDINE], the Activity is given as 100%.

Consider `COc1nn(CCOCCN2CCCCC2)c2ccc([N+](=O)[O-])cc12.Cl`, for which the Activity is below 60%.

The next data set has as its system Trypanosoma cruzi. In words: Antitrypanosomal activity against Trypanosoma cruzi bloodstream trypomastigote in mouse blood after 24 hrs relative to control. The class given is functional, organism-based.
Conditions: not given
The compound `O=[N+]([O-])c1ccc2c(c1)c(O)nn2Cc1ccccc1CN1CCCCC1` yielded an IC50 above 50 µM.

`COc1nn(CCOCCN2CCCCC2)c2ccc([N+](=O)[O-])cc12.Cl` yielded an IC50 above 50 µM.
